Laboratory results published in ChEMBL document CHEMBL2074199, “The MRP4/ABCC4 gene encodes a novel apical organic anion transporter in human kidney proximal tubules: putative efflux pump for urinary cAMP and cGMP” (J Am Soc Nephrol, 2002).

What was measured:
Assay type in all cases: functional, cell membranes, Membrane vesicle
[1] = biological target: T1, ATP-binding cassette sub-family C member 4 (Homo sapiens, UniProt O15439); test: TP_TRANSPORTER: inhibition of cGMP uptake ([…]: 1 uM, Probenecid: 1000 uM) in membrane vesicles from MRP4-expressing Sf9 cells; set-up: scale not given: the % may be the effect or the level left; details: sf9, 1000 µM
T1 sequence (O15439 whole entry): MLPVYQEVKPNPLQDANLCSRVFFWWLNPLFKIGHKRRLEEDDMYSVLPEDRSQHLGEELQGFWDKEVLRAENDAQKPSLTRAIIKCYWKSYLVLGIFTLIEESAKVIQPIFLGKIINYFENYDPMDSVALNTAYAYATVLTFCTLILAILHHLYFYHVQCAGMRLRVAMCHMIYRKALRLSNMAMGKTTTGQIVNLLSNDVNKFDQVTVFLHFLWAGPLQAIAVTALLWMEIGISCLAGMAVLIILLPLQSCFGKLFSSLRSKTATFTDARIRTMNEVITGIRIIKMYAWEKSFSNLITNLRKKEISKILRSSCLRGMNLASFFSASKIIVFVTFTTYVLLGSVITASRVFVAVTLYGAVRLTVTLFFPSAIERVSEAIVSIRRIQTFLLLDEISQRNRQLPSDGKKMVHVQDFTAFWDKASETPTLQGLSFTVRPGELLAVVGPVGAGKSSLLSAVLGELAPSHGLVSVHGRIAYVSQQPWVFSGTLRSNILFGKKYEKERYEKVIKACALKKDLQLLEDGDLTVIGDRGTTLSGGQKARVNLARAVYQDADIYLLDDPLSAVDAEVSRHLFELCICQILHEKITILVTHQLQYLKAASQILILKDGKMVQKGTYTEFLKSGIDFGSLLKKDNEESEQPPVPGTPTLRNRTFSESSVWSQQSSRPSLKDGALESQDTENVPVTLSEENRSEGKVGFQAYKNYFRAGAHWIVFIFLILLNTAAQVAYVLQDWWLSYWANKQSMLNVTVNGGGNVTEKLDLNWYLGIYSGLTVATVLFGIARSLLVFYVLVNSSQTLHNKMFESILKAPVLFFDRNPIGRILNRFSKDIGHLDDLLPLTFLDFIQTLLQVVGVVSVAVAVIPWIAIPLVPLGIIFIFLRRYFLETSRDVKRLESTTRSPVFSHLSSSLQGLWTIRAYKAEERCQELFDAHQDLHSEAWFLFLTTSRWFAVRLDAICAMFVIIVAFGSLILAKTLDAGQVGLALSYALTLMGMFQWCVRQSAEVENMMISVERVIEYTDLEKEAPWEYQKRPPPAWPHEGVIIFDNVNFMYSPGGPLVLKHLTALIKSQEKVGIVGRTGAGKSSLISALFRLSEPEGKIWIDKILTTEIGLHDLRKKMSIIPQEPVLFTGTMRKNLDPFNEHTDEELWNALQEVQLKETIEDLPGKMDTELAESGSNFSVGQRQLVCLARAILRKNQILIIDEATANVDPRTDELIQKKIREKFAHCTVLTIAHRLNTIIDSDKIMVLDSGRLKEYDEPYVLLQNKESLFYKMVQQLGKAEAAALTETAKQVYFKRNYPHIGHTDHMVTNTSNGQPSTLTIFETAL

[2] = biological target: T1, ATP-binding cassette sub-family C member 4; test: TP_TRANSPORTER: inhibition of cGMP uptake ([…]: 1 uM, Dipyridamole: 1 uM) in membrane vesicles from MRP4-expressing Sf9 cells; set-up: scale not given: the % may be the effect or the level left; details: sf9, 1 µM
MRP4 (ABCC4) [3] = biological target: T2, MRP4 (ABCC4) (Homo sapiens, UniProt O15439); test: TP_TRANSPORTER: inhibition of MTX uptake (MTX: 0.1 uM, E217betaG: 100 uM) in membrane vesicles from MRP4-expressing Sf9 cells; set-up: scale not given: the % may be the effect or the level left; details: probe methotrexate 0.1 uM, read-out: Activity
T2 sequence (O15439 whole entry): T1 sequence (O15439 whole entry)

MRP4 (ABCC4) [4] = biological target: T2, MRP4 (ABCC4); test: TP_TRANSPORTER: inhibition of Methotrexate uptake (MTX: 0.1 uM, DNP-SG: 100 uM) in membrane vesicles from MRP4-expressing Sf9 cells; set-up: scale not given: the % may be the effect or the level left; details: probe methotrexate 0.1 uM, read-out: Activity
MRP4 (ABCC4) [5] = biological target: T2, MRP4 (ABCC4); test: TP_TRANSPORTER: inhibition of MTX uptake (MTX: 0.1 uM, p-Nitropenyl-beta-D-glucuronide: 1000 uM) in membrane vesicles from MRP4-expressing Sf9 cells; set-up: scale not given: the % may be the effect or the level left; details: probe methotrexate 0.1 uM, read-out: Activity
MRP4 (ABCC4) [6] = biological target: T2, MRP4 (ABCC4); test: TP_TRANSPORTER: inhibition of Methotrexate uptake (MTX: 0.1 uM, alpha-naphthyl beta-D-glucuronide: 1000 uM) in membrane vesicles from MRP4-expressing Sf9 cells; set-up: scale not given: the % may be the effect or the level left; details: probe methotrexate 0.1 uM, read-out: Activity
MRP4 (ABCC4) [7] = biological target: T2, MRP4 (ABCC4); test: TP_TRANSPORTER: inhibition of MTX uptake (MTX: 0.1 uM, NAc-DNP-Cys: 100 uM) in membrane vesicles from MRP4-expressing Sf9 cells; set-up: scale not given: the % may be the effect or the level left; details: probe methotrexate 0.1 uM, read-out: Activity
[8] = substrate: CN(Cc1cnc2nc(N)nc(N)c2n1)c1ccc(C(=O)N[C@@H](CCC(=O)O)C(=O)O)cc1; test: TP_TRANSPORTER: uptake in membrane vesicles from MRP4-expressing Sf9 cells

**Q.** How did the Activity [1] turn out when `CCCN(CCC)S(=O)(=O)c1ccc(C(=O)O)cc1` [PROBENECID] was run?
**A.** Its Activity is 10%.

**Q.** With `OCCN(CCO)c1nc(N2CCCCC2)c2nc(N(CCO)CCO)nc(N3CCCCC3)c2n1` [DIPYRIDAMOLE] as the molecule, how does the Activity [2] read?
**A.** The Activity was 9%.

**Q.** Which activity at 100 µM (MRP4 (ABCC4) [3]) does the source give for `C[C@]12CC[C@@H]3c4ccc(O)cc4CC[C@H]3[C@@H]1CC[C@@H]2O[C@@H]1O[C@H](C(=O)O)[C@@H](O)[C@H](O)[C@H]1O` [ESTRADIOL 17B GLUCURONIDE] here?
**A.** The activity at 100 µM was 75%.

**Q.** Which activity at 100 µM (MRP4 (ABCC4) [4]) does the source give for `N[C@@H](CCC(=O)N[C@H](CSc1ccc([N+](=O)[O-])cc1[N+](=O)[O-])C(=O)NCC(=O)O)C(=O)O` here?
**A.** The activity at 100 µM was 3%.

**Q.** `O=C(O)[C@H]1O[C@@H](Oc2ccc([N+](=O)[O-])cc2)[C@H](O)[C@@H](O)[C@@H]1O` was tested. Which activity at 1000 µM (MRP4 (ABCC4) [5]) did it give?
**A.** The activity at 1000 µM was 25%.

**Q.** With `O=C(O)[C@H]1O[C@@H](Oc2cccc3ccccc23)[C@H](O)[C@@H](O)[C@@H]1O` as the molecule, how does the activity at 1000 µM (MRP4 (ABCC4) [6]) read?
**A.** The activity at 1000 µM was 18%.

**Q.** How did the activity at 100 µM (MRP4 (ABCC4) [7]) turn out when `CC(=O)N[C@@H](CSc1ccc([N+](=O)[O-])cc1[N+](=O)[O-])C(=O)O` was run?
**A.** The activity at 100 µM was 29%.

B1: ATP-binding cassette sub-family C member 4 (Homo sapiens) (protein)
chain: T1 sequence (O15439 whole entry)
**Q.** B1 was tested. Which Km [8] did it give?
**A.** The Km was 1300 µM.
